# Experimental data reported in US20110236467A1, “METHOD FOR ERECTILE FUNCTION PO[…] PHARMACEUTICAL CO[…] TX2-6 OF THE SPIDER PHONEUTRIA NIGRIVENTER” (priority 2008, published 2011).
# “Also recorded” adds a separate entry of the source.
# Test system: nitric oxide synthase (NOS)
# Assay: Blockage of nitric oxide synthase by L-NAME and Tx2-6 action on erectile function (ICP/MAP) in rats
# Assay type: in vivo, rat
# Experimental: The participation of nitric oxide, resulting from the toxin effect on erection, was tested by using a nonselective inhibitor of the nitric oxide synthase enzyme, L-NAME (L-N^G-nitro-arginine methyl ester), intracavernosally injected (200 mg/Kg) in normotensive rats treated with Tx2-6 (subcutaneously injected; 48 μg/Kg).
# Nitric oxide (NO) is generated from the amino acid L-arginine by means of the NOS enzyme action. This synthesis occurs in different parts of the organism, including the corpus cavernosum. In this experiment, an inhibitor nonspecific for NOS (L-NAME, 200 mg/Kg) was injected intracavemosally.
smiles,measurement,setting,value
"COC(=O)[C@@H](N)CCCNC(=N)N[N+](=O)[O-] [L-NAME, L-N^G-nitro-arginine methyl ester]",effect of L-NAME on rat erectile function (ICP/AMP ratio),"L-NAME 200 mg/Kg intracavernosal, submaximum stimulation",blocked rat erectile function; also recorded: significant blockage
same,effect of L-NAME on the potentiator effect of erection caused by the toxin (ICP/MAP relation),L-NAME with Tx2-6,completely blocked
